Source: ChEMBL document CHEMBL1201862, “PubChem BioAssay data set” (2004)
Values joined by “and” are separate entries in the source; they are usually repeats but may differ in a detail not shown here. Equal entries are not always repeated. Active and inactive are the calls of the source.

How the values were obtained:
[1] = molecular target: FAD-linked sulfhydryl oxidase ALR (Homo sapiens, UniProt P55789); assay: ALR-catalysed DTT oxidation blockers – biochemical, H2O2 detection, luminescence, cherry-pick, dose response (AID 493248)
FAD-linked sulfhydryl oxidase ALR, sequence (P55789 whole entry): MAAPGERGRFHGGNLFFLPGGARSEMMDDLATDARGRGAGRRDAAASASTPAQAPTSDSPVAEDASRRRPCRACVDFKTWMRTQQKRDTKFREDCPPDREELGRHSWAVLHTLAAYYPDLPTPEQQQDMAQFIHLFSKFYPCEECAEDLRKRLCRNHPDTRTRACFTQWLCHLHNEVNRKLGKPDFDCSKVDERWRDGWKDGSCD

[2] = molecular target: Cytochrome P450 2D6 (Homo sapiens, UniProt P10635);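 note: CYP2D6 member of a cytochrome P450 panel assay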
Cytochrome P450 2D6, sequence (P10635 whole entry): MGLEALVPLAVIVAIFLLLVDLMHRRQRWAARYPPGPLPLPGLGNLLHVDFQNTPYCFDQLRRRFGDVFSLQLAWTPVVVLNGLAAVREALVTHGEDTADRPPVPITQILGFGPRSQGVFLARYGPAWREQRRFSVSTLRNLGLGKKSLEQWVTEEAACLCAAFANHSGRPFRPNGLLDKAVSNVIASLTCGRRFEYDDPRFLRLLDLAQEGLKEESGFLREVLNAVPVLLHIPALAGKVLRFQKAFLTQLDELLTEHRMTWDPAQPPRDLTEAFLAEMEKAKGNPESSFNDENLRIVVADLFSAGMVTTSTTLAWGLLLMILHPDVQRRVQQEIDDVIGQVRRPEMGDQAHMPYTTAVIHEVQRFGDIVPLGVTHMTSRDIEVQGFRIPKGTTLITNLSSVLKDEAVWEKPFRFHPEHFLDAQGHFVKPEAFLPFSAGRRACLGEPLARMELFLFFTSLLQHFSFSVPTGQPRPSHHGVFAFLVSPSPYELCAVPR

[3] = molecular target: T1, Cytochrome P450 1A2 (Homo sapiens, UniProt P05177);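 note: PubChem cytochrome P450 panel assay, CYP1A2 panel member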
T1 sequence (P05177 whole entry): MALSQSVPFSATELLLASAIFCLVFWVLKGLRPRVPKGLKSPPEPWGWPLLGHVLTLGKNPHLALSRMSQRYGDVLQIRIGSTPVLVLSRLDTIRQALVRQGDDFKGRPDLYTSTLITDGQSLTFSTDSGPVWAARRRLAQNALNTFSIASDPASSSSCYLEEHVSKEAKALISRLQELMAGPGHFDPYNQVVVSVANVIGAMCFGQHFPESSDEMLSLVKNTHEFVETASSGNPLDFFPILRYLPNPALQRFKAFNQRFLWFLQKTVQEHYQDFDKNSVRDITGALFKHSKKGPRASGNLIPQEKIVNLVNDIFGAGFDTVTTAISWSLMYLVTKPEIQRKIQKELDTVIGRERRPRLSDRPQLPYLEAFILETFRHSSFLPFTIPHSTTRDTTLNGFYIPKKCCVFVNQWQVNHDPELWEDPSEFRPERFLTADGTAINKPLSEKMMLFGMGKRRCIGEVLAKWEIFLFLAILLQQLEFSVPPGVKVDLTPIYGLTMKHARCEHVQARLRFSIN

[4] = molecular target: Luciferin 4-monooxygenase (Photinus pyralis, UniProt P08659); assay: inhibition of purified Photinus pyralis luciferase – biochemical, luminescence, dose response (AID 1891)
Luciferin 4-monooxygenase, sequence (P08659 whole entry): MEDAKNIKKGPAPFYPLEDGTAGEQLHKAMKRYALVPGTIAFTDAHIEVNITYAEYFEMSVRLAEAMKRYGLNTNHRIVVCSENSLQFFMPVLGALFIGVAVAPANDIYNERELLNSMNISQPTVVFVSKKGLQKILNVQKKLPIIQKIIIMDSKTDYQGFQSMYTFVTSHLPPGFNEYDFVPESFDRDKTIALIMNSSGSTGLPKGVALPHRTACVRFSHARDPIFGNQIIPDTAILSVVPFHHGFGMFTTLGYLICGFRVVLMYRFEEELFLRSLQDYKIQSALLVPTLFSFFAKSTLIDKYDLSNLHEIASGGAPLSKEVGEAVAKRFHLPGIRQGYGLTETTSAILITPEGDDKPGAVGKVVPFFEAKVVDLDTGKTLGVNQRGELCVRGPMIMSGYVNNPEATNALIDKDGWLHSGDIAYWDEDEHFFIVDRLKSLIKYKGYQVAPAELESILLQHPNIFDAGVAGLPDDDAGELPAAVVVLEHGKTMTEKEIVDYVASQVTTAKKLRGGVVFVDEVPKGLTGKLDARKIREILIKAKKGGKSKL

[5] = Luminescence Cell-Based Dose Confirmation HTS to Identify Inhibitors of Platelet Dense Granule Release. [Related pubchem assays: 1663 (Primary HTS), 1678 (Summary of Project)]; type: functional
[6] = molecular target: Cytochrome P450 3A4 (Homo sapiens, UniProt P08684);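 note: CYP3A4 tested as one member of a cytochrome P450 panel screen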
Cytochrome P450 3A4, sequence (P08684 whole entry): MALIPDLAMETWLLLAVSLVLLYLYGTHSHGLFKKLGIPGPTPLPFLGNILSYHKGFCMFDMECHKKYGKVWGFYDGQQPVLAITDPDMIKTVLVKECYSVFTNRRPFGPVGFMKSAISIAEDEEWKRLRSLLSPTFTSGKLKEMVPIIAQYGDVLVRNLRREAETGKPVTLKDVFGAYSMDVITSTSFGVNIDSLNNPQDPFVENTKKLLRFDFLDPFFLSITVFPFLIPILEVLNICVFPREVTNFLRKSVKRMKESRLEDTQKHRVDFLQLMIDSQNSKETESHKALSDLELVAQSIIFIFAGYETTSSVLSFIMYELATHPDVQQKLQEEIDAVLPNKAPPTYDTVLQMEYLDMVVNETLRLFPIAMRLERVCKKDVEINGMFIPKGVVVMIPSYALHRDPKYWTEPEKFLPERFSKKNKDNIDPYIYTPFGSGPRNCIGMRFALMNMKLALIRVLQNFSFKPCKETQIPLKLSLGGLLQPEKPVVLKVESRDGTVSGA

[7] = molecular target: Cytochrome P450 2C9 (Homo sapiens, UniProt P11712)
Cytochrome P450 2C9, sequence (P11712 whole entry): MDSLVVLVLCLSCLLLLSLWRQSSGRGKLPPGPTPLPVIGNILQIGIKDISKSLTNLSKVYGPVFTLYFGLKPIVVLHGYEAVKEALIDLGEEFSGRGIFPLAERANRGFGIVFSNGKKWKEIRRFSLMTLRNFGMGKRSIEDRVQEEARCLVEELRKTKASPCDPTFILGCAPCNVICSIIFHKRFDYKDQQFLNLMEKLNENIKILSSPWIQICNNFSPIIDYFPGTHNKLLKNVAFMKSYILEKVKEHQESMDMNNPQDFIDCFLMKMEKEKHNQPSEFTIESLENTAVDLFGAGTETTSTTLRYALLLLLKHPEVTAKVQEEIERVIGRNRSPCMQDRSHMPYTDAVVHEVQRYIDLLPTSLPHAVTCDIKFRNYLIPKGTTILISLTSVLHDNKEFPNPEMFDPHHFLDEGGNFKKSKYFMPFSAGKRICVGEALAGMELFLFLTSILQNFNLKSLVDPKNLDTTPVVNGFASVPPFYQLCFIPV

[8] = Luminescence Cell-Based Dose Response HTS to Identify Activators of Luciferase Translation or Activity in H4 […] Cells. [Related pubchem assays: 1829 (Project Summary), 1814 (Primary HTS)]; type: functional
[9] = Luminescence Cell-Based Dose Confirmation HTS to Identify Activators of 5'UTR Stem-Loop Driven Alpha-Synuclein mRNA Translation in H4 Neuroglioblastoma Cells. [Related pubchem assays: 1829 (Project Summary), 1814 (Primary HTS)]; type: functional
[10] = test system: H4; assay: Luminescence Cell-Based Dose Response HTS to Identify Activators of 5'UTR Stem-Loop Driven Prion Protein mRNA Translation in H4 Neuroglioblastoma Cells. [Related pubchem assays: 1829 (Project Summary), 1814 (Primary HTS)]; type: functional; conditions: Homo sapiens
[11] = molecular target: Cytochrome P450 2C19 (Homo sapiens, UniProt P33261); assay: Cytochrome panel assay with activity outcomes. Panel member name: p450-cyp2c19 Compounds with AC50 equal or less than 10 uM are considered active; type: functional
Cytochrome P450 2C19, sequence (P33261 whole entry): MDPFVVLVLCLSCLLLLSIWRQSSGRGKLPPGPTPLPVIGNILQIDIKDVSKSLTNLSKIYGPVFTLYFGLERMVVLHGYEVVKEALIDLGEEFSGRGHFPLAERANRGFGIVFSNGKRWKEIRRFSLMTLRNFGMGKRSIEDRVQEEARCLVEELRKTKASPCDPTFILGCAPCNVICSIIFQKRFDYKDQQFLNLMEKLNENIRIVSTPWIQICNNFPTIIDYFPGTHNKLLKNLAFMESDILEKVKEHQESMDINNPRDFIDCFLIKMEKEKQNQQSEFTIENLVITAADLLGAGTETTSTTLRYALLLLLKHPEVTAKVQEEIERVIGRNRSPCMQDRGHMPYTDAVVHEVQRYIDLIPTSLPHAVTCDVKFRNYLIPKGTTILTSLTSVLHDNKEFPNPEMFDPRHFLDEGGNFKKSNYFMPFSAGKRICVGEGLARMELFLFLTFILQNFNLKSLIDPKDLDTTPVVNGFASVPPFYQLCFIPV

[12] = viability of uninfected HEp-2 cells – cell-based, HTS, cytotoxicity control for RSV inhibitor project, dose response (AID 2410); type: functional; conditions: human respiratory syncytial virus
[13] = molecular target: T2, Rac GTPase-activating protein 1 (Homo sapiens, UniProt Q9H0H5); assay: blockers of MgcRacGAP-driven Rac1 GTP hydrolysis – biochemical, ADP Hunter fluorescence, primary and confirmatory, confirmation (AID 624330); type: functional
T2 sequence (Q9H0H5 whole entry): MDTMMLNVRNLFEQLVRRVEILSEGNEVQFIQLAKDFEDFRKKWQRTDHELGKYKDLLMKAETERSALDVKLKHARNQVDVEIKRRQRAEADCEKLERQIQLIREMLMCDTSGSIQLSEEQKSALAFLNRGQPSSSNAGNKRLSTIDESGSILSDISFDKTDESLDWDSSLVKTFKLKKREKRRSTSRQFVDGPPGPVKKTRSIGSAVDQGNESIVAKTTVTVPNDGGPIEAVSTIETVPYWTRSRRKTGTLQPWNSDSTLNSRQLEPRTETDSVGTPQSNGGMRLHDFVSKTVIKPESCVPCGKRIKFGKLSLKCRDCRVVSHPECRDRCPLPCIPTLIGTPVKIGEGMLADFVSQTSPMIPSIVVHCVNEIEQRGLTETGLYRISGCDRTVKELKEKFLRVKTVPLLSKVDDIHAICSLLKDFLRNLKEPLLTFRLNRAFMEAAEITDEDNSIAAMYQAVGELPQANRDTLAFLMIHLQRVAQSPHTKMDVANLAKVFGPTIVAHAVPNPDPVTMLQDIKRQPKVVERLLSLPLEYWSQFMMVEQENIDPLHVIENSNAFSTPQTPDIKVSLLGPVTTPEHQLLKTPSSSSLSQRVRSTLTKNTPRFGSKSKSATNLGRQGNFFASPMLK

In the case of CC(C)=NNc1nc(-c2ccc(N3C(=O)CCC3=O)cc2)cs1, the AC50 [1] is reported as 0.119 µM (active).

In the case of Cc1cccc(NC(=O)CSc2nc(COc3ccccc3)nc3ccccc23)c1C, the AC50 [2] is reported as 12.6 µM (inconclusive) and the AC50 [3] is reported as 12.6 µM (inconclusive).

With CC1CCC(NC(=O)c2ccc(CS(=O)(=O)Cc3ccccc3F)o2)CC1 (stereo not given) the AC50 [2] was 35.5 µM (inconclusive), the EC50 [4] was > 112 µM (not active) and the AC50 [3] was 0.251 µM (inconclusive). For the same molecule, the EC50 [5] was > 112 µM (not active), the AC50 [6] was 14.1 µM (inconclusive) and the AC50 [7] was 17.8 µM (inconclusive).

With O=C(CN1C(=O)NC2(CCCC2)C1=O)Nc1cc(Cl)ccc1N1CCCC1 the AC50 [1] was 0.244 µM (active).

For N#C/C(=C\c1c[nH]c2ccccc12)c1nnc2n1CCCCC2, the EC50 [4] was > 112 µM (not active) and the EC50 [5] was > 112 µM (not active).

With COc1ccc(C(=O)N2CCN=C2SCc2cccnc2)c(OC)c1 the AC50 [1] was 0.067 µM (active).

For Cc1ccc(Oc2nc3ccccn3c(=O)c2/C=C(\C#N)C(=O)NC2CCS(=O)(=O)C2)c(C)c1 (stereo not given), the EC50 [4] was > 112 µM (not active) and the EC50 [5] was 6.03 µM (active).

With Cc1cccc(NC(=O)c2cnc3sccn3c2=O)n1 the EC50 [8] was 32.9 µM (active), the EC50 [9] was 0.125 µM (active) and the EC50 [10] was 63.9 µM (active).

With C[C@H](CN(C)C)C(O)(c1ccccc1)c1ccccc1 the AC50 [11] was “inconclusive” and the AC50 [2] was 3.98 µM (inconclusive).

In the case of O=C(CN1CCN(c2ccccc2O)CC1)NCCCc1ccccc1, the AC50 [1] is reported as 0.301 µM (active).

For CCCn1c(S)nnc1C(C)NC(=O)c1ccccc1 (stereo not given), the AC50 [1] was 3 µM (active).

In the case of CCCSC1=C(C#N)C(c2cccnc2)C(C(=O)OCC)=C(c2ccccc2)N1 (stereo not given), the AC50 [2] is reported as 39.8 µM (inconclusive).

With Oc1c2nc3ccccc3c-2ncn1CCC1=CCCCC1 the EC50 [8] was 46.6 µM (active), the EC50 [9] was 43.3 µM (active) and the EC50 [10] was 1.72 µM (active).

In the case of O=C(Nc1ccc(Nc2ccccc2)cc1)c1ccco1, the CC50 [12] is reported as 45.1 µM (active) and the AC50 [1] is reported as 5.94 µM (active).

For COc1ccc2c(c1)C(=O)CC(c1ccc3c(c1)OCCO3)O2 (stereo not given), the EC50 [8] was 42 µM (active), the EC50 [9] was 7.88 µM (active) and the EC50 [10] was 13.9 µM (active).

For CCN(CC)CCNC(=O)C(C)c1nn(C)c(=O)c2ccccc12 (stereo not given), the AC50 [2] was 20 µM (inconclusive).

For CCOC(=O)C(CC)n1cnc2c(nnn2-c2ccc(F)cc2)c1=O (stereo not given), the EC50 [4] was > 112 µM (not active) and the EC50 [5] was > 112 µM (not active).

In the case of O=C(O)c1nc2ccccc2nc1C(=O)O, the EC50 [8] is reported as 25.5 µM (active), the EC50 [9] is reported as 11.1 µM (active) and the EC50 [10] is reported as > 120 µM (not active).

In the case of COC(=O)C1CC1C(NC(=O)[C@H]1CCCCN1)c1ccccc1 (stereo not given in full), the AC50 [2] is reported as 20 µM (inconclusive) and the AC50 [7] is reported as 20 µM (inconclusive).

For O=C(COC(=O)c1ccc2[nH]c3c(c2c1)CCCC3)Nc1ccccc1, the EC50 [8] was 41.9 µM (active), the EC50 [9] was 5.12 µM (active) and the EC50 [10] was > 120 µM (not active).

For CC12CCC(C(=O)NNc3ccccc3)(C(=O)C1=O)C2(C)C (stereo not given), the EC50 [4] was > 112 µM (not active) and the EC50 [5] was > 112 µM (not active).

With CC(Cc1ccccc1)C(=O)NCc1ccccn1 (stereo not given) the AC50 [2] was 39.8 µM (inconclusive).

With N/C(CSS(=O)(=O)O)=N\[C@@H]1C[C@H]2CC[C@@H]1C2 the AC50 [11] was “inconclusive”, the AC50 [2] was 7.94 µM (inconclusive) and the AC50 [3] was 10 µM (inconclusive). For the same molecule, the AC50 [7] was 7.94 µM (inconclusive).

For Cc1ccc(C)c(NC(=O)c2cc(S(=O)(=O)N3CCOCC3)cn2C)c1, the EC50 [4] was > 112 µM (not active) and the EC50 [5] was > 112 µM (not active).

In the case of COc1ccccc1CNc1nc(-c2cccnc2)nc2ccccc12, the AC50 [2] is reported as 25.1 µM (inconclusive) and the AC50 [6] is reported as 1.26 µM (inconclusive).

With Cn1c(-c2ccc3c(c2)OCO3)cnc1NCc1cccc(O)c1 the AC50 [1] was 2.49 µM (active).

In the case of O=C(Cn1c(=S)nc2ccccn21)N1CCc2ccccc2C1, the EC50 [8] is reported as 30.2 µM (active), the EC50 [9] is reported as 5.67 µM (active) and the EC50 [10] is reported as 10.3 µM (active).

With C=CCn1c(S)nnc1C(C)NC(=O)c1cccc(C)c1 (stereo not given) the AC50 [1] was 4.01 µM (active).

For COc1ccc(-c2[nH]nc(C)c2-c2ccccc2OC)c(O)c1, the AC50 [1] was < 0.005 µM (active).

In the case of O=C(N/N=C\c1cccc(O)c1)c1ccncc1, the AC50 [2] is reported as 3.16 µM (inconclusive).

In the case of CSc1nnc2c(n1)OC(C)N(C(=O)c1ccccc1)c1ccccc1-2 (stereo not given), the EC50 [8] is reported as > 120 µM (not active), the EC50 [9] is reported as 15.4 µM (active) and the EC50 [10] is reported as > 120 µM (not active). The AC50 [3] was 10 µM (inconclusive) and the AC50 [7] was 31.6 µM (inconclusive).

For CC(C(=O)Nc1ccccc1C(F)(F)F)N1CCN(C)CC1 (stereo not given), the IC50 [13] was 163 µM (active).

With CCN(C(=O)COC(=O)/C=C/c1cnc2ccccc2n1)c1ccccc1 the EC50 [8] was 0.49 µM (active), the EC50 [9] was > 120 µM (not active) and the EC50 [10] was > 120 µM (not active).

For Cn1c(C(=O)N2COCC2(C)C)cc2c(=O)n3ccccc3nc21, the EC50 [8] was 12 µM (active), the EC50 [9] was 17.2 µM (active) and the EC50 [10] was 61.7 µM (active). The AC50 [7] was 5.01 µM (inconclusive).

For Cc1cnc(NC(=O)CN2CCN(c3ccccc3F)CC2)s1, the IC50 [13] was 150 µM (active).

For COc1ccc(-n2c(=O)c(-c3ccccc3)nc3cncnc32)cc1, the AC50 ([11]; read-out: AC50) was 39.8 µM (inconclusive), the AC50 [2] was 25.1 µM (inconclusive) and the AC50 [6] was 15.8 µM (inconclusive).

For COC(=O)C1=C2SC(C)C(=O)N2C(N)=C(C#N)C1c1ccc(OC)c(OC)c1 (stereo not given), the EC50 [4] was > 112 µM (not active) and the EC50 [5] was > 112 µM (not active).

With CCOc1cc(N2CCOCC2)c(OCC)cc1NCC(=O)N1CCN(Cc2ccccc2)CC1 the IC50 [13] was 64.2 µM (active).

In the case of O=C1CC(NCCC2=CCCCC2)C(=O)N1c1cccc(Cl)c1Cl (stereo not given), the AC50 [2] is reported as 15.8 µM (inconclusive), the AC50 [3] is reported as 15.8 µM (inconclusive) and the AC50 [6] is reported as 15.8 µM (inconclusive).

With CC1CCC(NC(=O)c2cc3c(=O)n(C)c4ccccc4c3n2C)CC1 (stereo not given) the EC50 [8] was 14.3 µM (active), the EC50 [9] was 7.84 µM (active) and the EC50 [10] was > 120 µM (not active).

In the case of CCN(CCNC(=O)C1CCN(S(=O)(=O)c2cccc3nsnc23)CC1)c1ccccc1, the AC50 [1] is reported as 4.69 µM (active).

With O=C(CN1CCCCCC1)Nc1nc2ccccc2s1 the IC50 [13] was 173 µM (active).

In the case of Oc1c(/C=N/c2ccc(Cl)cn2)sc2ccccc12, the EC50 [8] is reported as 12.3 µM (active), the EC50 [9] is reported as 15.4 µM (active) and the EC50 [10] is reported as 15.5 µM (active).

For CCN1CCN(CC(=O)N/N=C/c2cc(Br)cs2)CC1, the IC50 [13] was 94.2 µM (active).

In the case of CSc1nc(/C=C2\C=Nc3ccccc32)c(O)n1C, the AC50 [1] is reported as 4.03 µM (active), the EC50 [4] is reported as 5.32 µM (active) and the EC50 [5] is reported as 0.812 µM (active). For the same molecule, the IC50 [13] was 41 µM (active).

For Cn1c(=O)c2c(nc(OCc3ccc(Cl)cc3Cl)n2Cc2ccc(F)cc2)n(C)c1=O, the EC50 [4] was > 112 µM (not active) and the EC50 [5] was > 112 µM (not active).

For CCN(CC)CCNC(=O)c1cc(Cl)c(N)cc1OC [METOCLOPRAMIDE], the AC50 [2] was 6.31 µM (inconclusive) and 15.8 µM (inconclusive) and the AC50 [3] was 15.8 µM (inconclusive).
